Results reported in patent US12404291B2, “Antimicrobial agent” (priority 2019, dated 2025).
Converted amounts (≈) assume the structure as drawn.

Columns and labels:
HPRT = HPRT forward mutation assay; format: cell-based; details: concentrations above the compounds MIC's
Excerpt: It is therefore confirmed that the compounds are non-mutagenic to mammalian DNA.

physchem = format: physicochemical; details: pH 7.4, aqueous buffer, kinetic from dmso stock
Experimental: Table 12 illustrates the kinetic solubility of complexes 4^2+ and 4^4+ were tested and compared to a soluble positive control drug (Nicardipine). Both compounds passed the DMPK analysis with an optimal solubility and kinetic stability.

[1] = tested on: E. coli wild type (MG1655); test: MIC and MBC determination; format: cell-based
Experimental: (§1) The bioactivity of these compounds was investigated with respect to the wild type K12-derivative MG1655 and uropathogenic multidrug resistant EC958 ST131 strains of E. coli. Another gram-positive bacteria, ESKAPE bacteria—the pathogenic gastrointestinal strain of Enterococcus faecalis, V583 (ATCC700802)—which is a major opportunistic pathogen (and a leading cause of urinary tract infections) was also tested with respect to the compounds. The minimum inhibitory concentration, MIC, of the four complexes was obtained in both glucose defined minimal media (GDMM) and nutrient rich Mueller-Hinton-II (MH-II) (FIG. 7).
(§2) The same parameters and conditions used above to determine MIC and MBC values with respect to compounds 1^4+ to 4^4+ were employed in order to test the MIC and MBC values of complexes 1^2+ to 4^2+.
(§3) The MIC and MBC values were determined as above.

[2] = tested on: E. faecalis pathogenic (V583); test: MIC and MBC determination; format: cell-based, Enterococcus faecalis
Experimental: as §1, §2, §3

P. aeruginosa biofilm = test: Biofilm activity profile (MBEC); format: cell-based; details: Gram-negative biofilm
A. baumannii biofilm = test: Biofilm activity profile (MBEC); format: cell-based; details: Gram-negative biofilm
K. pneumonia biofilm = test: Biofilm activity profile (MBEC); format: cell-based; details: Gram-negative biofilm

Compound: N.N.[Cl][Pt][Cl] [Cisplatin]
- Mutations (HPRT): 65.5 per 1 × 10^5 viable cells

Compound: COC(=O)C1=C(C)NC(C)=C(C(=O)OCCN(C)Cc2ccccc2)C1c1cccc([N+](=O)[O-])c1 (stereo not drawn) [Nicardipine]
- solubility (physchem): 20.8 µM (≈ 10 µg/mL)
- solubility (physchem; Solubility): 20.8 µM (≈ 9.97 µg/mL)

Compound: CC1(C)S[C@@H]2[C@H](NC(=O)[C@H](N)c3ccccc3)C(=O)N2[C@H]1C(=O)O [ampicillin]
- MBC ([1]; Escherichia coli, MG1655, GDMM): 11.4 µM (≈ 3.98 µg/mL)
- MBC ([1]; MH-II): 11.4 µM (≈ 3.98 µg/mL)
- MIC ([2]; Enterococcus faecalis, MH-II): 0.5 µM (≈ 0.175 µg/mL)
- MBC ([2]; Enterococcus faecalis, GDMM): 6.3 µM (≈ 2.2 µg/mL)
- MIC ([2]; Enterococcus faecalis, GDMM): 1 µM (≈ 0.349 µg/mL)
- MBC ([2]; MH-II): 6.3 µM (≈ 2.2 µg/mL)

Compound: Gentamicin
- Minimum Biofilm Eradication Concentration (MBEC) (P. aeruginosa biofilm): 18 µM
- Minimum Biofilm Eradication Concentration (MBEC) (A. baumannii biofilm): 9 µM
- Minimum Biofilm Eradication Concentration (MBEC) (K. pneumonia biofilm): 18 µM
